The results in this text go back to patent US9296741B2, “Bromodomain inhibitors” (priority 2012, dated 2016).

The test system of series [1] is LPS induced IL-6 production. The series is described as follows: LPS (lipopolysaccharide) induced IL-6 production mouse assay. Format: in vivo. The note with it: Mus musculus, read-out: Inhibition of LPS induced IL-6 production in Mice, % inhibition at 3 mg/kg; 3 mg/kg oral, 1 h before LPS; serum IL-6 2 h after LPS.
For series [2], the system named is breast cancer cell line MX-1. The series is described as follows: MX-1 cell line proliferation assay. Format: cell-based, human. The note with it: Homo sapiens, MX1, 72 h; MX-1 cells, 3-day proliferation, Cell Titer Glo; read-out: Cellular proliferation: EC50.
Series [3] addresses human BRD4 second bromodomain (BDII_E352-M457) (Homo sapiens (Human), UniProt O60885). The series is described as follows: TR-FRET bromodomain binding assay, BRD4 second bromodomain. A general note: Time-resolved FRET reads energy transfer from a long-lived donor to a nearby acceptor.
Series [4] can be described thus: Human liver microsome stability assay. Format: in vitro ADME. The note with it: both sexes, human, microsomes, pH 7.4. In general terms: Liver microsomes are vesicles of endoplasmic reticulum, rich in cytochrome P450 enzymes.
Series [5] deals with human BRD4 first bromodomain (BDI_K57-E168) (Homo sapiens (Human), UniProt O60885). Description: TR-FRET bromodomain binding assay, BRD4 first bromodomain.
The nature of series [6]: Mouse liver microsome stability assay. Format: in vitro ADME. The note with it: male, CD1, mouse, microsomes, pH 7.4.
The nature of series [7]: Rat liver microsome stability assay. The note with it: rat liver microsomes (male Sprague-Dawley), 0.5 μM test compound, 0.25 mg/mL microsomal protein, pH 7.4, 37° C.; read-out: Stability in rat liver microsomes (t1/2 in minutes). Format: in vitro ADME.

By Ki is commonly meant a dissociation constant, usually derived from enzyme kinetics or from competition with a known ligand. Read a low Ki as a stronger hold on the target.

Molecules are shown by their SMILES. Some results are limits rather than exact numbers.

Regarding `Cn1cc(-c2cc(S(C)(=O)=O)cnc2Oc2ccc(F)cc2F)c2cc[nH]c2c1=O` [Example 288, 4-[2-(2,4-difluorophenoxy)-5-(methylsulfonyl)pyridin-3-yl]-6-methyl-1,6-dihydro-7H-pyrrolo[2,3-c]pyridin-7-one], the inhibition in vivo at 3 mg/kg in series [1] came to 60%. In series [2], the EC50 came out at 173 nM. Further, the Ki was 53.9 nM in series [3] and 71.9 nM in series [5]. Besides, the half-life at 0.5 μM in series [4] was 85 min; in series [6] it was above 120 min; in series [7], above 120 min.

On to `CCS(=O)(=O)Nc1ccc(Oc2ccc(C(N)=O)cc2)c(-c2cn(C)c(=O)c3[nH]ccc23)c1` [Example 84, 4-{4-[(ethylsulfonyl)amino]-2-(6-methyl-7-oxo-6,7-dihydro-1H-pyrrolo[2,3-c]pyridin-4-yl)phenoxy}benzamide], for which the inhibition in vivo at 3 mg/kg in series [1] was 69%. Moreover, the EC50 in series [2] is 231 nM. Moreover, the Ki amounted to 0.65 nM in series [3] and 1.67 nM in series [5]. For the same compound, the half-life at 0.5 μM in series [4] is 112 min; in series [6], above 120 min; in series [7], 92 min.

Consider `Cn1cc(-c2cc(S(C)(=O)=O)ccc2OC2CCOC2)c2cc[nH]c2c1=O` (stereo not shown) [Example 205, 6-methyl-4-[5-(methylsulfonyl)-2-(tetrahydrofuran-3-yloxy)phenyl]-1,6-dihydro-7H-pyrrolo[2,3-c]pyridin-7-one], for which the inhibition in vivo at 3 mg/kg in series [1] was found to be 48%. Besides, the EC50 in series [2] turned out to be 39.1 nM. Also, the Ki in series [3] worked out at 10.2 nM; in series [5], 6.2 nM. Besides, the half-life at 0.5 μM in series [4] was above 120 min; in series [6], 118 min; in series [7], 81 min.

In the case of `CNS(=O)(=O)Nc1ccc(Oc2ccc(F)cc2F)c(-c2cn(C)c(=O)c3[nH]ccc23)c1` [Example 65, N-[4-(2,4-difluorophenoxy)-3-(6-methyl-7-oxo-6,7-dihydro-1H-pyrrolo[2,3-c]pyridin-4-yl)phenyl]-N′-methylsulfuric diamide], the inhibition in vivo at 3 mg/kg in series [1] was found to be 63%. Further, the EC50 in series [2] worked out at 25.5 nM. Besides, the Ki in series [3] is 4.9 nM; in series [5], 11.6 nM. In addition, the half-life at 0.5 μM is 88 min in series [4], 11 min in series [6] and above 120 min in series [7].

Consider `Cn1cc(-c2cc(NS(C)(=O)=O)ccc2Oc2cccnc2)c2cc[nH]c2c1=O` [Example 11, N-[3-(6-methyl-7-oxo-6,7-dihydro-1H-pyrrolo[2,3-c]pyridin-4-yl)-4-(pyridin-3-yloxy)phenyl]methanesulfonamide], for which, in series [1], the inhibition in vivo at 3 mg/kg was 34%. Besides, in series [2], the EC50 worked out at 34.2 nM. Further, the Ki amounted to 2.4 nM in series [3] and 1.8 nM in series [5]. For the same compound, the half-life at 0.5 μM in series [4] is 48 min; in series [6], 27 min; in series [7], 19 min.

With `CCS(=O)(=O)c1ccc(Oc2ccc(F)cc2F)c(-c2cn(C)c(=O)c3[nH]ccc23)c1` [Example 168, 4-[2-(2,4-difluorophenoxy)-5-(ethylsulfonyl)phenyl]-6-methyl-1,6-dihydro-7H-pyrrolo[2,3-c]pyridin-7-one], in series [1], the inhibition in vivo at 3 mg/kg amounted to 70%. For the same compound, the EC50 in series [2] turned out to be 27.7 nM. The Ki in series [3] was determined as 1.3 nM; in series [5], 5.4 nM. Also, the values for the half-life at 0.5 μM in series [4], in series [6] and in series [7] were 66 min, 25 min and 82 min, respectively.

Consider `Cn1cc(-c2cc(C(=O)N3CCOCC3)ccc2Oc2ccc(F)cc2F)c2cc[nH]c2c1=O` [Example 56, 4-[2-(2,4-difluorophenoxy)-5-(morpholin-4-ylcarbonyl)phenyl]-6-methyl-1,6-dihydro-7H-pyrrolo[2,3-c]pyridin-7-one], for which the inhibition in vivo at 3 mg/kg in series [1] was found to be 28%. In addition, the EC50 in series [2] was 251 nM. Further, the results for the Ki in series [3] and in series [5] were 2.4 nM and 12.2 nM, respectively. Further, the half-life at 0.5 μM in series [4] came out at 39 min; in series [6] it was 36 min; in series [7], 30 min.

Consider `CCS(=O)(=O)c1ccc(O[C@H]2CC[C@@H](OC)CC2)c(-c2cn(C)c(=O)c3[nH]ccc23)c1` [Example 248, 4-{5-(ethylsulfonyl)-2-[(cis-4-methoxycyclohexyl)oxy]phenyl}-6-methyl-1,6-dihydro-7H-pyrrolo[2,3-c]pyridin-7-one], for which the inhibition in vivo at 3 mg/kg in series [1] was 82%. In series [2], the EC50 is 26.4 nM. Further, the inhibitory constant (Ki) in series [3] was determined as 1.3 nM; in series [5], 1.9 nM. Also, the half-life at 0.5 μM in series [4] was 13 min; in series [6], 5 min; in series [7] it was 16 min.

Regarding `CCS(=O)(=O)c1ccc(O[C@H]2CC[C@H](OC)CC2)c(-c2cn(C)c(=O)c3[nH]ccc23)c1` [Example 260, 4-{5-(ethylsulfonyl)-2-[(trans-4-methoxycyclohexyl)oxy]phenyl}-6-methyl-1,6-dihydro-7H-pyrrolo[2,3-c]pyridin-7-one], the inhibition in vivo at 3 mg/kg in series [1] was found to be 66%. Also, in series [2], the EC50 was determined as 6.3 nM. The Ki is 1.2 nM in series [3] and 1 nM in series [5]. Further, the figures for the half-life at 0.5 μM in series [4], in series [6] and in series [7] were 34 min, 29 min and 58 min, respectively.

As to `Cn1cc(-c2cc(S(=O)(=O)C3CC3)ccc2Oc2ccc(F)cc2F)c2cc[nH]c2c1=O` [Example 290, 4-[5-(cyclopropylsulfonyl)-2-(2,4-difluorophenoxy)phenyl]-6-methyl-1,6-dihydro-7H-pyrrolo[2,3-c]pyridin-7-one], in series [1], the inhibition in vivo at 3 mg/kg came out at 64%. Moreover, the EC50 in series [2] is 36.2 nM. Besides, the Ki in series [3] is 1.9 nM; in series [5] it was 5 nM. The half-life at 0.5 μM was 73 min in series [4], 52 min in series [6] and 48 min in series [7].

`Cn1cc(-c2cc(S(C)(=O)=O)ccc2Oc2cccc(N)c2)c2cc[nH]c2c1=O` [Example 166, 4-[2-(3-aminophenoxy)-5-(methylsulfonyl)phenyl]-6-methyl-1,6-dihydro-7H-pyrrolo[2,3-c]pyridin-7-one]: the inhibition in vivo at 3 mg/kg in series [1] amounted to 44%. In series [2], the EC50 stood at 48.2 nM. Besides, the results for the Ki in series [3] and in series [5] were 3.6 nM and 10.9 nM, respectively. For the same compound, the figures for the half-life at 0.5 μM in series [4], in series [6] and in series [7] were 85 min, 22 min and 23 min, respectively.

Turning to `Cn1cc(-c2cc(S(C)(=O)=O)ccc2Oc2ccc(Cl)cc2)c2cc[nH]c2c1=O` [Example 154, 4-[2-(4-chlorophenoxy)-5-(methylsulfonyl)phenyl]-6-methyl-1,6-dihydro-7H-pyrrolo[2,3-c]pyridin-7-one], the inhibition in vivo at 3 mg/kg in series [1] was determined as 73%. In series [2], the EC50 turned out to be 65.5 nM. Also, the results for the Ki in series [3] and in series [5] were 13.1 nM and 20.8 nM, respectively. In addition, the half-life at 0.5 μM in series [4] stood at 42 min; in series [6] it was 18 min; in series [7], 66 min.

In the case of `Cn1cc(-c2cc(NS(C)(=O)=O)ccc2Oc2ccccc2C(F)(F)F)c2cc[nH]c2c1=O` [Example 32, N-{3-(6-methyl-7-oxo-6,7-dihydro-1H-pyrrolo[2,3-c]pyridin-4-yl)-4-[2-(trifluoromethyl)phenoxy]phenyl}methanesulfonamide], in series [1], the inhibition in vivo at 3 mg/kg amounted to 69%. Besides, the EC50 in series [2] was found to be 83.3 nM. The inhibition constant Ki is 7.5 nM in series [3] and 16 nM in series [5]. For the same compound, the figures for the half-life at 0.5 μM in series [4], in series [6] and in series [7] were 24 min, 32 min and 82 min, respectively.

On to `CCS(=O)(=O)c1ccc(NC2CC2)c(-c2cn(C)c(=O)c3[nH]ccc23)c1` [Example 267, 4-[2-(cyclopropylamino)-5-(ethylsulfonyl)phenyl]-6-methyl-1,6-dihydro-7H-pyrrolo[2,3-c]pyridin-7-one], for which the inhibition in vivo at 3 mg/kg in series [1] came out at 74%. Also, in series [2], the EC50 was determined as 43.6 nM. For the same compound, the Ki was 4.2 nM in series [3] and 4.4 nM in series [5]. Besides, the half-life at 0.5 μM in series [4] is 95 min; in series [6] it was above 120 min; in series [7] it was 18 min.

Regarding `CCS(=O)(=O)c1ccc(OCC2CC2(F)F)c(-c2cn(C)c(=O)c3[nH]ccc23)c1` (stereo not shown) [Example 240, 4-{2-[(2,2-difluorocyclopropyl)methoxy]-5-(ethylsulfonyl)phenyl}-6-methyl-1,6-dihydro-7H-pyrrolo[2,3-c]pyridin-7-one], the inhibition in vivo at 3 mg/kg in series [1] was 62%. The EC50 in series [2] is 11.5 nM. In addition, the Ki in series [3] was 2.8 nM; in series [5], 2 nM. Moreover, the half-life at 0.5 μM in series [4] is above 120 min; in series [6] it was 47 min; in series [7], above 120 min.

Take `Cn1cc(-c2cc(NS(C)(=O)=O)ccc2Oc2ccc(F)cc2Cl)c2cc[nH]c2c1=O` [Example 34, N-[4-(2-chloro-4-fluorophenoxy)-3-(6-methyl-7-oxo-6,7-dihydro-1H-pyrrolo[2,3-c]pyridin-4-yl)phenyl]methanesulfonamide]: the inhibition in vivo at 3 mg/kg in series [1] came out at 78%. The EC50 in series [2] came out at 26.8 nM. In addition, the Ki in series [3] is 2.1 nM; in series [5] it was 3.5 nM. In addition, the half-life at 0.5 μM in series [4] is 37 min; in series [6] it was 35 min; in series [7], 42 min.
